Measured values from ChEMBL document CHEMBL5252564, “It's ok to be outnumbered - sub-stoichiometric modulation of homomeric protein complexes” (RSC Med Chem, 2023).
Peptide text beside a SMILES is read from it. * marks the point of attachment. X1 = CC(C)[C@H](N*)B(O)O

Tests used:
[1] = target: T1, ATP-dependent Clp protease proteolytic subunit (Staphylococcus aureus (strain NCTC 8325)) (UniProt Q2G036); test: Inhibition of Staphylococcus aureus ClpP assessed as active site modification at 1 uM treated for 1 hr by mass spectrometry analysis relative to control
T1 sequence (whole entry): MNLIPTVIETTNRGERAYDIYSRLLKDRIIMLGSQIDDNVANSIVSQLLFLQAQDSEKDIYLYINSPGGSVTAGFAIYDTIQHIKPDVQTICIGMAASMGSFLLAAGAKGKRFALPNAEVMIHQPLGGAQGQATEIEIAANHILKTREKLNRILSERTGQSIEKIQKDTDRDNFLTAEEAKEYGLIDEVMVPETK

[2] = Binding affinity to Escherichia coli DegP using SPMFKGV-pNA as substrate at resting state by isothermal titration calorimetry
[3] = Binding affinity to Escherichia coli DegP using SPMFKGV-pNA as substrate at activated state by isothermal titration calorimetry
[4] = target: Programmed cell death 1 ligand 1 (Homo sapiens) (UniProt Q9NZQ7)
Chain of Programmed cell death 1 ligand 1 (Homo sapiens) (Q9NZQ7 whole entry): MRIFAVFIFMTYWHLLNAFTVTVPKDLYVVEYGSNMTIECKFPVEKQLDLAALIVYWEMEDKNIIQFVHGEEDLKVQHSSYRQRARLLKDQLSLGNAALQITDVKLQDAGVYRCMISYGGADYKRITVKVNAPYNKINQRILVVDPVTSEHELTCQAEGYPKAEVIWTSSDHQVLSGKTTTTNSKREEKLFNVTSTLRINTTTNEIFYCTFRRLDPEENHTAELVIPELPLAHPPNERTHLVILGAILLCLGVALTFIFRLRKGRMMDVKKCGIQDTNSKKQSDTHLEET
Description: Binding affinity to human PD-L1 (18 to 134 residues) expressed in Escherichia coli BL21(DE3) assessed as thermal stabilization by measuring melting temperature by DSF assay

With `C#Cc1ccc(C(=O)C2CN(C(=O)CCCCCCCCC=C)S2(=O)=O)cc1` (stereo not given) the inhibition [1] was 63%.
Work on `C#CCCC[C@H]1OC(=O)[C@@H]1c1ccc(OC)cc1` yielded an inhibition [1] of 35%.
`CSCC[C@H](NC(=O)[C@@H]1CCCN1C(=O)[C@@H](N)CC(=O)O)C(=O)N[C@@H](Cc1ccccc1)C(=O)N[C@@H](CCCCN)C(=O)N[C@@H](CC(C)C)C(=O)N[C@H](B(O)O)C(C)C` (H-DPMFKL-X1) gave a Kd [2] of 6 µM and a Kd [3] of 0.033 µM.
`COc1nc(OCc2cccc(-c3ccccc3)c2C)ccc1CNCCNC(C)=O` gave a ΔTm [4] of 13 °C.
